Source: patent EP0207453B1 (priority 1985, dated 1987)
≈ marks a conversion by molar mass, not a printed value.

The compounds below were run on Polio 2 (assay: microbe, parasite or virus in culture). Details: HeLa, read-out: MIC (Polio 2).
Type: cell-based, polioviruses

| SMILES | MIC [µg/mL] |
| --- | --- |
| Cc1cc(CCCCCOc2c(Cl)cc(-c3ccc(C)s3)cc2Cl)on1 [10(b), 5-{5-[2,6-Dichloro-4-(5-methyl-2-thienyl)phenoxy]pentyl}-3-methylisoxazole] | 4.4 (≈ 10.7 µM) |
| Cc1cc(CCCCCOc2c(Cl)cc(-c3nnn(C)n3)cc2Cl)on1 [23 (1st compd.), 5-{5-[2,6-dichloro-4-(2-methyl-2H-tetrazol-5-yl)phenoxy]pentyl}-3-methylisoxazole] | 2.9 (≈ 7.32 µM) |
| Cc1cc(CCCCCOc2c(Cl)cc(-c3cccs3)cc2Cl)on1 [Example 1(c), 5-{5-[2,6-Dichloro-4-(2-thienyl)phenoxy]pentyl}-3-methylisoxazole] | 2.5 (≈ 6.31 µM) |
| Cc1cc(CCCCCOc2ccc(-c3cccs3)cc2)on1 [Example 2, 3-Methyl-5-{5-(4-(2-thienyl)phenoxy]pentyl}-isoxazole] | 0.02 (≈ 0.0611 µM) |
| Cc1cc(CCCCCOc2ccc(-c3nc(C)c(C)s3)cc2)on1 [Example 3, 3-Methyl-5-{5-[4-(4,5-dimethyl-2-thiazolyl)phenoxy]-pentyl}isoxazole] | 1 (≈ 2.81 µM) |
| Cc1cc(CCCCCOc2ccc(-c3nc4ccccc4o3)cc2)on1 [Example 6, 5-{5-[4-(2-Benzoxazolyl)phenoxy]pentyl}-3-methylisoxazole] | 0.9 (≈ 2.48 µM) |
| Cc1cc(CCCCCOc2ccc(-c3nccs3)cc2)on1 [Example 20, 3-Methyl-5-{5-[4-(2-thiazolyl)phenoxy]pentyl}-isoxazole] | 0.06 (≈ 0.183 µM) |
